The record followed here is patent publication US20250051285A1, “C[…] FORM OF EP4 ANTAGONIST” (Eisai R&D Management Co., Ltd., priority 2021, published 2025).

Holding throughout (assay type): physicochemical
Series [1] in a line: Solubility in aqueous solutions.
Series [2] is described as follows: Solubility in organic solvents and water.
Series [3] can be described thus: Dissociation constant (pKa) by capillary electrophoresis. The note with it: capillary electrophoresis (CE), buffer solution I = 0.05, 25° C.
A short description of series [4]: Hygroscopicity by dynamic vapor sorption (DVS). As to the method:
Hygroscopicity of crystalline free acid form of Compound 1 was measured using the dynamic vapor sorption (DVS) method.

As usually defined, the pKa is the negative logarithm of the acid dissociation constant. A low value points to a stronger acid or weaker base. Take `C[C@H](NC(=O)c1c(C(F)F)nn(C)c1Oc1cccc(C(F)(F)F)c1)c1ccc(C(=O)O)cc1` [Compound 1, (S)-4-(1-(3-(difluoromethyl)-1-methyl-5-(3-(trifluoromethyl)phenoxy)-1H-pyrazole-4-carboxamido)ethyl)benzoic acid]: the “Solubility in 0.1N HCl” value in series [1] (0.1N HCl) was 0.3, pH 9) and practically insoluble in 0.1N HCl and. Besides, the “Solubility in Britton-Robinson buffer pH 9” value in series [1] (Britton-Robinson buffer, I = 0.3, pH 9) was “Very slightly soluble in Britton-Robinson buffer (I =”. In addition, the “Solubility in 2-propanol” value in series [2] (2-propanol) was “ethanol and ethyl acetate, slightly soluble in 2-”. Also, the Solubility in acetonitrile result in series [2] (acetonitrile) was “soluble”. Further, the Solubility in ethanol entry in series [2] (ethanol) is given as “sparingly soluble”. Also, the “Solubility in ethyl acetate” value in series [2] (ethyl acetate) is reported as “sparingly soluble”. For the same compound, in series [2] (heptane), the Solubility in heptane entry is “practically insoluble in water and heptane”. For the same compound, the Solubility in water result in series [2] (water) is “practically insoluble in water and heptane”. The compound further had a pKa in series [3] of 4.1. Further, the Hygroscopicity result in series [4] (DVS adsorption and desorption isotherm) is recorded as “Non-hygroscopic”. Moreover, the “Weight change in DVS” value in series [4] (relative humidity 5% to 95% RH at 25° C.) is reported as “No significant weight change”.
